Results taken from the NIST ThermoML archive (doi:10.1016/j.jct.2011.01.014).

Key:
[1] = Liquid; for mass density: Vibrating tube method; for speed of sound: sound velocity cell
[2] = xn = mol fraction of the nth substance listed; conditions: 101 kPa, Liquid, x2 = 0; for mass density: Vibrating tube method; for speed of sound: sound velocity cell

CC(=O)[O-].[NH3+]CCO [2-hydroxyethylammonium acetate]
[1]
Conditions	mass density, 101 kPa [kg/m3]	mass density, 101.33 kPa [kg/m3]	speed of sound, 101 kPa [m/s]	speed of sound, 101.33 kPa [m/s]
288.15 K	1154.7	–	1817.2	–
290.65 K	1153.28	–	1810	–
293.15 K	1151.87	–	1803.2	–
295.65 K	1150.45	–	1796.8	–
298.15 K	–	1149.04	1790.7	1790.7
300.65 K	1147.63	–	1784.8	–
303.15 K	1146.22	–	1779	–
305.65 K	1144.8	–	1773.4	–
308.15 K	1143.39	–	1767.9	–
310.65 K	1141.96	–	1762.5	–
313.15 K	1140.55	–	1757.2	–
315.15 K	1139.18	–	–	–
315.65 K	1139.18	–	1751.9	–
318.15 K	1137.82	–	1746.5	–
320.65 K	1136.45	–	1741.3	–
323.15 K	1135.08	–	1736	–

CCO [ethanol]
[1], 101 kPa
Conditions	mass density [kg/m3]	speed of sound [m/s]
288.15 K	793.828	1177.8
290.65 K	791.692	1169.2
293.15 K	789.553	1160.6
295.65 K	787.411	1152
298.15 K	785.261	1143.5
300.65 K	783.106	1135
303.15 K	780.944	1126.5
305.65 K	778.773	1118.1
308.15 K	776.593	1109.7
310.65 K	774.405	1101.2
313.15 K	772.204	1092.8
315.65 K	769.995	1084.5
318.15 K	767.77	1076.2
320.65 K	765.534	1067.9
323.15 K	763.296	1059.6

CCO [ethanol] + CC(=O)[O-].[NH3+]CCO
[2]
Conditions	mass density [kg/m3]	speed of sound [m/s]
288.15 K	793.828	1177.8
290.65 K	791.692	1169.2
293.15 K	789.553	1160.6
295.65 K	787.411	1152
298.15 K	785.261	1143.5
300.65 K	783.106	1135
303.15 K	780.944	1126.5
305.65 K	778.773	1118.1
308.15 K	776.593	1109.7
310.65 K	774.405	1101.2
313.15 K	772.204	1092.8
315.65 K	769.995	1084.5
318.15 K	767.77	1076.2
320.65 K	765.534	1067.9
323.15 K	763.296	1059.6
